Drawing on patent US9951079B2, “Fused tricyclic heterocyclic compounds as HIV integrase inhibitors” (MERCK SHARP & DOHME CORP., priority 2013, dated 2018), this text covers IC50 for 16 compounds.

This test has as its system HIV-1 (NL4-3 strain). Kind of test: Assay for inhibition of HIV replication (MT4-gag-GFP reporter cell line, kinetic assay). The format is cell-based. The protocol:
This assay is a kinetic assay that employs a reporter cell line (MT4-gag-GFP) to quantify the number of new cells infected in each round of replication.
MT4-GFP cells (250,000 cells/ml) were bulk-infected with HIV-1 (NL4-3 strain) at low multiplicity of infection (MOI) in RPMI+10% FBS for 24 hours. Cells were then washed once in RPMI+10% FBS and resuspended in RPMI+0% or 10% or 100% normal human serum (NHS). Test compounds were serial-diluted in DMSO on ECHO. The infected MT4-GFP cells were added to a 384-well poly-D-lysine coated black plate with clear bottom in which the diluted test compounds were placed. The cells were seeded at 8,000 cells per well and the final DMSO concentration was 0.4%. The infected cells (Green GFP cells) were quantified at both 24 and 48 hours post incubation using Acumen eX3. Viral reproductive ratio (R0) was determined using the number of infected cells at 48 hours divided by the number of infected cells at 24 hours. Percent viral growth inhibition was calculated by [1−(R−Rtripledrug)/(RDMSO−Rtripledrug)]*100. Compound potency IP or IC50 was determined by a 4-parameter dose response curve analysis.

Setting [1] is: Human immunodeficiency virus 1, NL43, Table A, infected MT4-GFP cells, RPMI + 0% normal human serum, IP from 4-parameter dose response curve, read-out: Wild Type Cell Assay IP (0% NHS).
The mark [2] stands for this setting: Human immunodeficiency virus 1, NL43, Table B (selected enantiomeric compounds), 0% normal human serum, read-out: Wild Type Cell Assay IP (0% NHS).
Where [3] appears, read: Table A, infected MT4-GFP cells, RPMI + 10% normal human serum, read-out: Wild Type Cell Assay IP (10% NHS).
Where [4] appears, read: Table B (selected enantiomeric compounds), 100% normal human serum, read-out: Wild Type Cell Assay IP (100% NHS).
Setting [5] is: Human immunodeficiency virus 1, NL43, Table A, infected MT4-GFP cells, RPMI + 10% normal human serum, read-out: Wild Type Cell Assay IP (10% NHS).
The mark [6] stands for this setting: Table B (selected enantiomeric compounds), 0% normal human serum, read-out: Wild Type Cell Assay IP (0% NHS).

Read-outs that look alike come from different tables or passages of the source.

As to `CCN1C(=O)c2c(O)c(=O)c(-c3cn(Cc4ccc(F)cc4F)nn3)cn2C2COC[C@@H]21` (single isomer, unassigned) [Compound 16], the IC50 under setting [1] was found to be 0.038 µM; the IC50 under setting [2] stood at 0.038 µM; the IC50 (Human immunodeficiency virus 1, NL43, Table B (selected enantiomeric compounds), 100% normal human serum, read-out: Wild Type Cell Assay IP (100% NHS)) is 2.7 µM.
As to `CCN1C(=O)c2c(O)c(=O)c(-c3nnc(Cc4ccc(F)cc4F)s3)cn2C2COC[C@@H]21` (single isomer, unassigned) [Compound 4, cis-8-(5-(2,4-difluorobenzyl)-1,3,4-thiadiazol-2-yl)-4-ethyl-6-hydroxy-3a,4-dihydro-1H-furo[3,4-e]pyrido[1,2-a]pyrazine-5,7(3H,10aH)-dione], the IC50 runs as follows: under setting [2], 0.008 µM; under setting [3], 0.017 µM; under setting [4], 0.19 µM.
On to `COCCN1C(=O)c2c(O)c(=O)c(-c3nnc(Cc4ccc(F)cc4F)s3)cn2C2COC[C@@H]21` (mixture of isomers) [Compound 8], for which the IC50 runs as follows: under setting [1], 0.006 µM; under setting [5], 0.013 µM.
For `CCC(c1nnc(-c2cn3c(c(O)c2=O)C(=O)N(CC)[C@H]2COCC23)s1)c1ccc(F)cc1F` (mixture of isomers) [Compound 6], in that order: 0.031 µM and 0.067 µM.
Consider `CCN1C(=O)c2c(O)c(=O)c(-c3nnc(Cc4ccc(F)cc4F)s3)cn2C2COC[C@@H]21` (single isomer, unassigned) [Compound 5, cis-8-(5-(2,4-difluorobenzyl)-1,3,4-thiadiazol-2-yl)-4-ethyl-6-hydroxy-3a,4-dihydro-1H-furo[3,4-e]pyrido[1,2-a]pyrazine-5,7(3H,10aH)-dione], for which the IC50 is, setting by setting: under setting [1], 0.009 µM; under setting [3], 0.561 µM; under setting [4], 5.7 µM.
As for `CCN1C(=O)c2c(O)c(=O)c(-c3cn(Cc4ccc(F)cc4F)nn3)cn2[C@@H]2COC[C@@H]21` (single isomer, unassigned) [Compound 15, cis-8-(1-(2,4-Difluorobenzyl)-1H-1,2,3-triazol-4-yl)-4-ethyl-6-hydroxy-3a,4-dihydro-1H-furo[3,4-e]pyrido[1,2-a]pyrazine-5,7(3H,10aH)-dione], under setting [1], the IC50 worked out at 0.08 µM.
On to `CCN1C(=O)c2c(O)c(=O)c(-c3nnc(Cc4ccc(F)cc4F)s3)cn2[C@@H]2COC[C@H]21` (relative stereo) [Compound 3, trans-8-(5-(2,4-difluorobenzyl)-1,3,4-thiadiazol-2-yl)-4-ethyl-6-hydroxy-3a,4-dihydro-1H-furo[3,4-e]pyrido[1,2-a]pyrazine-5,7(3H,10aH)-dione], for which the IC50 under setting [5] was 0.058 µM.
Same read-out and setting: next, `O=C1N[C@H]2COCC2n2cc(-c3nnc(Cc4ccc(F)cc4F)s3)c(=O)c(O)c21` (stereo in doubt) [Compound 1, cis-8-(5-(2,4-difluorobenzyl)-1,3,4-thiadiazol-2-yl)-6-hydroxy-3a,4-dihydro-1H-furo[3,4-e]pyrido[1,2-a]pyrazine-5,7(3H,10aH)-dione]: 0.4 µM.
Turning to `CC(C)N1C(=O)c2c(O)c(=O)c(C(=O)NCc3ccc(F)cc3F)cn2C2COC[C@@H]21` (mixture of isomers) [Compound 12], the IC50 is, setting by setting: under setting [1], 0.003 µM; under setting [5], 0.062 µM.
Consider `CCN1C(=O)c2c(O)c(=O)c(C(=O)NCc3ccc(F)cc3F)cn2C2COC[C@@H]21` (single isomer, unassigned) [Compound 11, cis-N-(2,4-difluorobenzyl)-4-ethyl-6-hydroxy-5,7-dioxo-3,3a,4,5,7,10a-hexahydro-1H-furo[3,4-e]pyrido[1,2-a]pyrazine-8-carboxamide], for which the IC50 (Table A, infected MT4-GFP cells, RPMI + 0% normal human serum, IP from 4-parameter dose response curve, read-out: Wild Type Cell Assay IP (0% NHS)) is 0.006 µM; the IC50 under setting [3] turned out to be 0.148 µM; the IC50 under setting [6] is 0.038 µM; the IC50 under setting [4] was 2.8 µM.
Regarding `CCCN1C(=O)c2c(O)c(=O)c(-c3nnc(Cc4ccc(F)cc4)s3)cn2C2COC[C@@H]21` (mixture of isomers) [Compound 9], the IC50 under setting [1] was determined as 0.01 µM and the IC50 under setting [5] is 0.032 µM.
For the compound `O=C1N[C@@H]2COC[C@H]2n2cc(-c3nnc(Cc4ccc(F)cc4F)s3)c(=O)c(O)c21` (relative stereo) [Compound 2, trans-8-(5-(2,4-difluorobenzyl)-1,3,4-thiadiazol-2-yl)-6-hydroxy-3a,4-dihydro-1H-furo[3,4-e]pyrido[1,2-a]pyrazine-5,7(3H,10aH)-dione], under setting [5], the IC50 stood at 0.385 µM.
In the case of `CCN1C(=O)c2c(O)c(=O)c(-c3cnn(Cc4ccc(F)cc4F)c3)cn2[C@@H]2COC[C@@H]21` (relative stereo) [Compound 14, cis-8-(1-(2,4-difluorobenzyl)-1H-pyrazol-4-yl)-4-ethyl-6-hydroxy-3a,4-dihydro-1H-furo[3,4-e]pyrido[1,2-a]pyrazine-5,7(3H,10aH)-dione], the IC50 is, setting by setting: under setting [1], 0.051 µM; under setting [5], 0.252 µM.
As for `CCN1C(=O)c2c(O)c(=O)c(C(=O)NCc3ccc(F)cc3F)cn2C2COC[C@H]21` (stereo partly shown) [Compound 13], under setting [5], the IC50 is 0.021 µM.
In the case of `CCN1C(=O)c2c(O)c(=O)c(-c3nnc(Cc4ccc(F)cc4)s3)cn2C2COC[C@@H]21` (mixture of isomers) [Compound 7], the IC50 under setting [1] is 0.036 µM and the IC50 under setting [5] came out at 0.074 µM.
`CCN1C(=O)c2c(O)c(=O)c(C(=O)NCc3ccc(F)cc3F)cn2C2COC[C@@H]21` (single isomer, unassigned) [Compound 10, cis-N-(2,4-difluorobenzyl)-4-ethyl-6-hydroxy-5,7-dioxo-3,3a,4,5,7,10a-hexahydro-1H-furo[3,4-e]pyrido[1,2-a]pyrazine-8-carboxamide]: the IC50 under setting [1] stood at 0.004 µM, the IC50 under setting [3] stood at 0.008 µM, the IC50 under setting [6] was found to be 0.08 µM and the IC50 under setting [4] was determined as 0.071 µM.
